According to patent US11679107B2 (Eisai R&D Management Co., Ltd., priority 2018, dated 2023):
Read-outs that look alike come from different tables or passages of the source.

Tests used:
SF3b complexes = molecular target: T1, SF3b complexes (Homo sapiens, UniProt O75533+Q7RTV0); test: Scintillation proximity assay (SPA) with [3H]-labelled pladienolide probe; format: binding; settings: SF3B1 (WT); geometric mean; read-out: SPA-ATS GMean IC50 (nM) SF3B1 (WT)
T1 construct: endogenous in cells; host or cells: Nuclear extracts; A HeLa S3 extract preparation is described for the in vitro splicing assay
In short: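 SF3b complexes captured from nuclear extracts on anti-SF3B1 antibody SPA beads; test compounds pre-incubated 30 min before 2.5 nM [3H]-pladienolide probe added, then 30 min incubation. Bound probe read by scintillation; values from non-linear regression of concentration–response curves.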

[1] = test system: Panc 05.04 cells (SF3b K700E mutant); test: Cell proliferation and viability, CellTiter-Glo, 72 hours; format: cell-based; settings: for GI50: geometric mean
In short: (§1)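 RPMI-1640/10% FBS (Panc: + insulin, FBS 15%); 11-pt half-log dose, ~10 μM-100 pM, 0.1% DMSO; 37° C, 5% CO2; ATP luminescence read; % inhibition vs T0 and vehicle, −100% cidal to 100% uninhibited growth.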

[2] = test system: NCI-H1568 cells (high MCL1); test: as above; format: cell-based; settings: for GI50: geometric mean
In short: as §1

[3] = test system: Ad2 variant pre-mRNAs spliced in HeLa S3 nuclear extracts; test: In vitro splicing assay (IVS), RT-qPCR of spliced product; format: biochemical; settings: for IC50: geometric mean; for Ratio Ad2.1/2.2: ratio of IVS IC50 Ad2.1 to Ad2.2
In short: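 Read-out is one-step TaqMan RT-qPCR of spliced Ad2 mRNA with Ftz as reference, normalized to DMSO and fit by non-linear regression. Reactions held HeLa S3 nuclear extract, 2 ng Ad2-derived pre-mRNA and test compound, with 15 min preincubation. Splicing was started with ATP-containing activation buffer and run 90 min at 30 °C.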

[4] = PANC0504.1 cells, 72 h, −100% cidal, 0% static, 100% maximal growth
[5] = Panc 05.04, read-out: CTGlo-ATS GMean GI50 (nM) 72 h PANC0504.1, PANC0504.1 cells, 72 h
[6] = NCI-H1568, read-out: CTGlo-ATS GMean GI50 (nM) 72 h NCIH1568.1, NCIH1568.1 cells, 72 h
[7] = NCIH1568.1 cells, 72 h, −100% cidal, 0% static, 100% maximal growth
[8] = Ad2.1 pre-mRNA substrate, read-out: qPCR-IVS-ATS GMean IC50 (nM) Ad2.1
[9] = Ad2.2 pre-mRNA substrate, read-out: qPCR-IVS-ATS GMean IC50 (nM) Ad2.2
[10] = 72 h, PANC0504.1, -100% = cidal, 0% = static, 100% = uninhibited growth
[11] = Panc 05.04, read-out: CTGlo-ATS GMean GI50 (nM) 72 h PANC0504.1, 72 h, PANC0504.1
[12] = 72 h, NCIH1568.1, -100% = cidal, 0% = static, 100% = uninhibited growth
[13] = NCI-H1568, read-out: CTGlo-ATS GMean GI50 (nM) 72 h NCIH1568.1, 72 h, NCIH1568.1
[14] = Panc 05.04, 72 h, read-out: CTGlo-ATS GMean GI50 (nM) 72 h PANC0504.1, PANC0504.1 cells, 72 h
[15] = NCI-H1568, 72 h, read-out: CTGlo-ATS GMean GI50 (nM) 72 h NCIH1568.1, NCIH1568.1 cells, 72 h

| Compound | IC50 (SF3b complexes) | CTGlo-ATS Mean MinResponse % 72 h PANC0504.1 [1, 4] | GI50 [1, 5] | GI50 [2, 6] | CTGlo-ATS Mean MinResponse % 72 h NCIH1568.1 [2, 7] | IC50 [3, 8] | IC50 [3, 9] | CTGlo-ATS Mean MinResponse % 72 h PANC0504.1 [1, 10] | GI50 [1, 11] | CTGlo-ATS Mean MinResponse % 72 h NCIH1568.1 [2, 12] | GI50 [2, 13] | Ratio Ad2.1/2.2 [3] | GI50 [1, 14] | GI50 [2, 15] | GI50 ([1]; Panc 05.04, 72 h, read-out: CTGlo-ATS GMean GI50 (nM) 72 h PANC0504.1, 72 h, PANC0504.1) | GI50 ([2]; NCI-H1568, 72 h, read-out: CTGlo-ATS GMean GI50 (nM) 72 h NCIH1568.1, 72 h, NCIH1568.1) |
| --- | --- | --- | --- | --- | --- | --- | --- | --- | --- | --- | --- | --- | --- | --- | --- | --- |
| C/C(=C\c1cc(F)cc(N2CCN(CC(=O)C3CC3)CC2)c1)[C@H]1OC(=O)C[C@H](O)CC[C@H](C)[C@@H](OC(=O)N2CCN(C)CC2)/C=C/[C@@H]1C [Compound 84] | 2.75 nM | −89.010% | 5.61 nM | 4.3 nM | −80.428% | 29.6 nM | 22.1 nM |  |  |  |  |  |  |  |  |  |
| C/C(=C\c1cc(F)cc(N2CCOCC2)c1)[C@H]1OC(=O)C[C@H](O)CC[C@H](C)[C@@H](OC(=O)N2CCCC(N(C)C)C2)/C=C/[C@@H]1C (stereo partly shown) [Compound 40] | 3.98 nM | −82.881% | 7.75 nM | 13.3 nM | −72.259% | 55.9 nM | 28.1 nM |  |  |  |  |  |  |  |  |  |
| C/C(=C\c1cccc(S(=O)(=O)N2CCN(C)CC2)c1)[C@H]1OC(=O)C[C@H](O)CC[C@H](C)[C@@H](OC(=O)N2CCN(C)CC2)/C=C/[C@@H]1C [Compound 211, [(2S,3S,4E,6R,7S,10R)-10-hydroxy-3,7-dimethyl-2-[(E)-1-[3-(4-methylpiperazin-1-yl)sulfonylphenyl]prop-1-en-2-yl]-12-oxo-1-oxacyclododec-4-en-6-yl] 4-methylpiperazine-1-carboxylate] | 11.9 nM |  |  |  |  | 651 nM | 83.4 nM | −91.820% | 47.6 nM | −52.358% | 60.6 nM | 7.806 |  |  |  |  |
| C/C(=C\c1cc(N2CCOCC2)ccc1F)[C@H]1OC(=O)C[C@H](O)CC[C@H](C)[C@@H](OC(=O)N2CCN(C)CC2)/C=C/[C@@H]1C [Compound 7] | 2.88 nM | −89.436% | 8.96 nM | 15.1 nM | −56.359% | 1250 nM | 25.1 nM |  |  |  |  |  |  |  |  |  |
| C/C(=C\c1cc(F)cc(N2CCN(CCO)CC2)c1)[C@H]1OC(=O)C[C@H](O)CC[C@H](C)[C@@H](OC(=O)N2CCOCC2)/C=C/[C@@H]1C [Compound 53] | 14.1 nM | −92.947% | 81.1 nM | 81.8 nM | −59.250% | 1910 nM | 30.5 nM |  |  |  |  |  |  |  |  |  |
| C/C(=C\c1cc(F)cc(N2CCOCC2)c1)[C@H]1OC(=O)C[C@H](O)CC[C@H](C)[C@@H](OC(=O)N2CCN(C3CCC3)CC2)/C=C/[C@@H]1C [Compound 26] | 11.4 nM | −88.278% |  |  | −68.566% | 107 nM | 43.5 nM |  |  |  |  |  | 19 nM | 26.5 nM |  |  |
| C/C(=C\c1cc(F)cc(N2CCN(CC(=O)c3cnccn3)CC2)c1)[C@H]1OC(=O)C[C@H](O)CC[C@H](C)[C@@H](OC(=O)N2CCN(C)CC2)/C=C/[C@@H]1C [Compound 85] | 4.74 nM | −90.914% |  |  | −80.438% | 22 nM | 27 nM |  |  |  |  |  | 8.42 nM | 14.1 nM |  |  |
| C/C(=C\c1cc(C)cc2[nH]ncc12)[C@H]1OC(=O)C[C@H](O)CC[C@H](C)[C@@H](OC(=O)N2CCN(C)CC2)/C=C/[C@@H]1C [Compound 96] | 2.4 nM | −14.554% | 168 nM | 305 nM | −29.687% | > 25000 nM | 108 nM |  |  |  |  |  |  |  |  |  |
| C/C(=C\c1cc(F)cc(N2CCN(S(=O)(=O)C3COC3)CC2)c1)[C@H]1OC(=O)C[C@H](O)CC[C@H](C)[C@@H](OC(=O)N2CCN(C)CC2)/C=C/[C@@H]1C [Compound 125] | 5.06 nM | −83.226% | 6.76 nM | 4.51 nM | −83.586% | 17.6 nM | 14.9 nM |  |  |  |  |  |  |  |  |  |
| C/C(=C\c1cc(F)cc(N2CCOCC2=O)c1)[C@H]1OC(=O)C[C@H](O)CC[C@H](C)[C@@H](OC(=O)N2CCN(C)CC2)/C=C/[C@@H]1C [Compound 56] | 1.94 nM | −90.320% | 1.85 nM | 4.42 nM | −67.625% | 16.1 nM | 15.3 nM |  |  |  |  |  |  |  |  |  |
| C/C(=C\c1cc(F)cc(-n2ccnc2)c1)[C@H]1OC(=O)C[C@H](O)CC[C@H](C)[C@@H](OC(=O)N2CCN(C)CC2)/C=C/[C@@H]1C [Compound 60] | 2.99 nM | −87.159% | 26.7 nM | 29.9 nM | −42.456% | > 25000 nM | 55.5 nM |  |  |  |  |  |  |  |  |  |
| C/C(=C\c1cccc(S(=O)(=O)NC(C)C)c1)[C@H]1OC(=O)CC(O)CCC(C)[C@@H](OC(=O)N2CCN(C)CC2)/C=C/[C@@H]1C (stereo in doubt) [Compound 209, [(2S,3S,4E,6R,7R,10S)-10-hydroxy-3,7-dimethyl-12-oxo-2-[(E)-1-[3-(propan-2-ylsulfamoyl)phenyl]prop-1-en-2-yl]-1-oxacyclododec-4-en-6-yl] 4-methylpiperazine-1-carboxylate] | 4.78 nM |  |  |  |  | 3130 nM | 30 nM | −93.368% | 16.4 nM | −51.998% | 12.1 nM | 104.297 |  |  |  |  |
| C/C(=C\c1cc(F)cc(N2CCN(S(=O)(=O)c3ccc4ccn(C)c4c3)CC2)c1)[C@H]1OC(=O)C[C@H](O)CC[C@H](C)[C@@H](OC(=O)N2CCN(C)CC2)/C=C/[C@@H]1C [Compound 115] | 144 nM | −97.417% | 85.2 nM | 88.9 nM | −93.625% | 335 nM | 233 nM |  |  |  |  |  |  |  |  |  |
| CC(=O)N1CCC(n2nnc3c(F)cc(/C=C(\C)[C@H]4OC(=O)C[C@H](O)CC[C@H](C)[C@@H](OC(=O)N5CCNCC5)/C=C/[C@@H]4C)cc32)CC1 [Compound 253, [(2S,3S,4E,6R,7S,10R)-2-[(E)-1-[3-(1-acetylpiperidin-4-yl)-7-fluorobenzotriazol-5-yl]prop-1-en-2-yl]-10-hydroxy-3,7-dimethyl-12-oxo-1-oxacyclododec-4-en-6-yl] piperazine-1-carboxylate] | 1.92 nM |  |  |  |  | 10 nM | 8.59 nM | −80.763% |  | −84.782% |  | 1.167 |  |  | 12.9 nM | 2.42 nM |
| C/C(=C\c1cccc(S(=O)(=O)N2CCC(O)CC2)c1)[C@H]1OC(=O)C[C@H](O)CC[C@H](C)[C@@H](OC(=O)N2CCN(C)CC2)/C=C/[C@@H]1C [Compound 95] | 2.32 nM | −93.120% |  |  | −73.174% | 10.3 nM | 10 nM |  |  |  |  |  | 2.59 nM | 2.51 nM |  |  |
| C/C(=C\c1cnn(C2CCN(C)CC2)c1)[C@H]1OC(=O)C[C@H](O)CC[C@H](C)[C@@H](OC(=O)N2CCN(C)CC2)/C=C/[C@@H]1C [Compound 106] | 146 nM | 25.144% | 1950 nM | 9020 nM | 49.516% | 21300 nM | 556 nM |  |  |  |  |  |  |  |  |  |
